US12569509B2, “Method and composition for preventing and treating viral infections” (priority 2017, dated 2026)
Several values for one entry are separate records, joined by “and”; a condition that tells them apart may be missing. Equal entries are not always repeated.

Key:
human PBMC [1] = test: LPS stimulated cytokine secretion in human PBMC pretreated with compounds (Phase 2); type: cell-based; details: LPS alone, 1 ng/mL, 8-hour stimulation; for IL-2 concentration in supernatant: LLOQ = 1.698 pg/mL; for TNF-α concentration in supernatant: LLOQ = 2.018 pg/mL; for IL-1β concentration in supernatant: LLOQ = 2.299 pg/mL; for IFN-g concentration in supernatant: LLOQ = 2.792 pg/mL; for IL-6 concentration in supernatant: LLOQ = 0.831
Text: Results are represented as fold-change relative to LPS treatment alone for each cytokine calculated by means from 3 separate donors.
RPMI medium alone, RPMI supplemented with 0.2% DMSO (to mimic treatment conditions) or LPS stimulation alone were used as controls.
Except for the two negative control conditions, all 3 donors responded to all experimental conditions tested with the secretion of TNF-α, IL-1β, and IL-6 albeit with a high degree of variability.

human PBMC [2] = test: LPS concentration optimization, cytokine release in human PBMC (Phase 1); type: cell-based; details: for IL-2 Mean Concentration in supernatant / IFN-g Mean Concentration in supernatant: Donors 1-3; for IL-2 Mean Concentration in supernatant: LLOQ = 2.387 pg/mL; for IFN-g Mean Concentration in supernatant: LLOQ = 2.872 pg/mL; for IL-1β Mean Concentration in supernatant / IL-6 Mean Concentration in supernatant / TNF-α Mean Concentration in supernatant: individual Donors 1-3

Lipopolysaccharide [LPS]
IL-2 concentration in supernatant (human PBMC [1]; Donor 1): <LLOQ
TNF-α concentration in supernatant (human PBMC [1]; Donor 1): 1417.82 pg/mL
IL-1β concentration in supernatant (human PBMC [1]; Donor 1): 2362.87 pg/mL
IFN-g concentration in supernatant (human PBMC [1]; Donor 1): <LLOQ
IL-6 concentration in supernatant (human PBMC [1]; Donor 1): 863.49 pg/mL
IL-2 concentration in supernatant (human PBMC [1]; Donor 2): <LLOQ
TNF-α concentration in supernatant (human PBMC [1]; Donor 2): 1375.72 pg/mL
IL-1β concentration in supernatant (human PBMC [1]; Donor 2): 2485.92 pg/mL
IFN-g concentration in supernatant (human PBMC [1]; Donor 2): <LLOQ
IL-6 concentration in supernatant (human PBMC [1]; Donor 2): 760.26 pg/mL
IL-2 concentration in supernatant (human PBMC [1]; Donor 3): <LLOQ
TNF-α concentration in supernatant (human PBMC [1]; Donor 3): 4449.11 pg/mL
IL-1β concentration in supernatant (human PBMC [1]; Donor 3): 3881.34 pg/mL
IFN-g concentration in supernatant (human PBMC [1]; Donor 3): <LLOQ
IL-6 concentration in supernatant (human PBMC [1]; Donor 3): 760.26 pg/mL
Secretion of IL-1b, IL-6 and TNF-α (human PBMC [2]; 1 ng/mL LPS, after 8 hours): robust secretion
Secretion of IL-2 or IFN-g (human PBMC [2]; 1 ng/mL LPS, after 8 hours): No secretion
IL-2 Mean Concentration in supernatant (human PBMC [2]; LPS 1 ng/mL, 8-hour): <LLOQ
IFN-g Mean Concentration in supernatant (human PBMC [2]; LPS 1 ng/mL, 8-hour): <LLOQ
IL-1β Mean Concentration in supernatant (human PBMC [2]; LPS 1 ng/mL, 8-hour): 403.43 pg/mL and 575.75 pg/mL and 1756.56 pg/mL (2×)
IL-6 Mean Concentration in supernatant (human PBMC [2]; LPS 1 ng/mL, 8-hour): 64.83 pg/mL and 659.3 pg/mL and 1103.64 pg/mL (2×)
TNF-α Mean Concentration in supernatant (human PBMC [2]; LPS 1 ng/mL, 8-hour): 670.9 pg/mL and 817.83 pg/mL and 1149.23 pg/mL (2×)
IL-2 Mean Concentration in supernatant (human PBMC [2]; LPS 1 ng/mL, 24-hour): <LLOQ
IFN-g Mean Concentration in supernatant (human PBMC [2]; LPS 1 ng/mL, 24-hour): <LLOQ
IL-1β Mean Concentration in supernatant (human PBMC [2]; LPS 1 ng/mL, 24-hour): 923.42 pg/mL and 1164.43 pg/mL and 2396.79 pg/mL
IL-6 Mean Concentration in supernatant (human PBMC [2]; LPS 1 ng/mL, 24-hour): 1284.85 pg/mL and 1269.72 pg/mL and 1897.32 pg/mL
TNF-α Mean Concentration in supernatant (human PBMC [2]; LPS 1 ng/mL, 24-hour): 1768.29 pg/mL and 2299.94 pg/mL and 2108.58 pg/mL
IL-2 Mean Concentration in supernatant (human PBMC [2]; LPS 10 ng/mL, 8-hour): <LLOQ
IFN-g Mean Concentration in supernatant (human PBMC [2]; LPS 10 ng/mL, 8-hour): <LLOQ
IL-1β Mean Concentration in supernatant (human PBMC [2]; LPS 10 ng/mL, 8-hour): 404.91 pg/mL and 879.72 pg/mL and 1768.06 pg/mL
IL-6 Mean Concentration in supernatant (human PBMC [2]; LPS 10 ng/mL, 8-hour): 192.2 pg/mL and 830.13 pg/mL and 1084.03 pg/mL
TNF-α Mean Concentration in supernatant (human PBMC [2]; LPS 10 ng/mL, 8-hour): 912.13 pg/mL and 955.81 pg/mL and 1113.95 pg/mL
IL-2 Mean Concentration in supernatant (human PBMC [2]; LPS 10 ng/mL, 24-hour): <LLOQ
IFN-g Mean Concentration in supernatant (human PBMC [2]; LPS 10 ng/mL, 24-hour): <LLOQ
IL-1β Mean Concentration in supernatant (human PBMC [2]; LPS 10 ng/mL, 24-hour): 986.68 pg/mL and 1038.39 pg/mL and 2391.98 pg/mL
IL-6 Mean Concentration in supernatant (human PBMC [2]; LPS 10 ng/mL, 24-hour): 1393.01 pg/mL and 1167.49 pg/mL and 2016.76 pg/mL
TNF-α Mean Concentration in supernatant (human PBMC [2]; LPS 10 ng/mL, 24-hour): 2316.87 pg/mL and 1605.58 pg/mL and 2139.91 pg/mL
IL-2 Mean Concentration in supernatant (human PBMC [2]; LPS 50 ng/mL, 8-hour): <LLOQ
IFN-g Mean Concentration in supernatant (human PBMC [2]; LPS 50 ng/mL, 8-hour): <LLOQ
IL-1β Mean Concentration in supernatant (human PBMC [2]; LPS 50 ng/mL, 8-hour): 327.69 pg/mL and 1002.11 pg/mL and 1751.4 pg/mL
IL-6 Mean Concentration in supernatant (human PBMC [2]; LPS 50 ng/mL, 8-hour): 75.24 pg/mL and 880.71 pg/mL and 1096.09 pg/mL
TNF-α Mean Concentration in supernatant (human PBMC [2]; LPS 50 ng/mL, 8-hour): 511.42 pg/mL and 1143.84 pg/mL and 1051.41 pg/mL
IL-2 Mean Concentration in supernatant (human PBMC [2]; LPS 50 ng/mL, 24-hour): <LLOQ
IFN-g Mean Concentration in supernatant (human PBMC [2]; LPS 50 ng/mL, 24-hour): <LLOQ
IL-1β Mean Concentration in supernatant (human PBMC [2]; LPS 50 ng/mL, 24-hour): 899.92 pg/mL and 1170.32 pg/mL and 2216.54 pg/mL
IL-6 Mean Concentration in supernatant (human PBMC [2]; LPS 50 ng/mL, 24-hour): 1317.99 pg/mL and 1333.24 pg/mL and 1966.58 pg/mL
TNF-α Mean Concentration in supernatant (human PBMC [2]; LPS 50 ng/mL, 24-hour): 1680.24 pg/mL and 1378.24 pg/mL and 1954.44 pg/mL
IL-2 Mean Concentration in supernatant (human PBMC [2]; LPS 100 ng/mL, 8-hour): <LLOQ
IFN-g Mean Concentration in supernatant (human PBMC [2]; LPS 100 ng/mL, 8-hour): <LLOQ
IL-1β Mean Concentration in supernatant (human PBMC [2]; LPS 100 ng/mL, 8-hour): 298.82 pg/mL and 873.62 pg/mL and 1222.41 pg/mL
IL-6 Mean Concentration in supernatant (human PBMC [2]; LPS 100 ng/mL, 8-hour): 37.62 pg/mL and 820.5 pg/mL and 817.27 pg/mL
TNF-α Mean Concentration in supernatant (human PBMC [2]; LPS 100 ng/mL, 8-hour): 386.41 pg/mL and 1313.93 pg/mL and 868.83 pg/mL
IL-2 Mean Concentration in supernatant (human PBMC [2]; LPS 100 ng/mL, 24-hour): <LLOQ
IFN-g Mean Concentration in supernatant (human PBMC [2]; LPS 100 ng/mL, 24-hour): <LLOQ
IL-1β Mean Concentration in supernatant (human PBMC [2]; LPS 100 ng/mL, 24-hour): 913.95 pg/mL and 1182.07 pg/mL and 2282.4 pg/mL
IL-6 Mean Concentration in supernatant (human PBMC [2]; LPS 100 ng/mL, 24-hour): 1390.38 pg/mL and 1243.06 pg/mL and 2083.25 pg/mL
TNF-α Mean Concentration in supernatant (human PBMC [2]; LPS 100 ng/mL, 24-hour): 1792.89 pg/mL and 1332.65 pg/mL and 2343.08 pg/mL
IL-2 Mean Concentration in supernatant (human PBMC [2]; LPS 1000 ng/mL, 8-hour): <LLOQ
IFN-g Mean Concentration in supernatant (human PBMC [2]; LPS 1000 ng/mL, 8-hour): <LLOQ
IL-1β Mean Concentration in supernatant (human PBMC [2]; LPS 1000 ng/mL, 8-hour): 1008.83 pg/mL and 1979.93 pg/mL and 441.01 pg/mL
IL-6 Mean Concentration in supernatant (human PBMC [2]; LPS 1000 ng/mL, 8-hour): 895.76 pg/mL and 1251.62 pg/mL and 166.25 pg/mL
TNF-α Mean Concentration in supernatant (human PBMC [2]; LPS 1000 ng/mL, 8-hour): 1276.06 pg/mL and 1481.27 pg/mL and 498.68 pg/mL
IFN-g Mean Concentration in supernatant (human PBMC [2]; LPS 1000 ng/mL, 24-hour): <LLOQ
IL-1β Mean Concentration in supernatant (human PBMC [2]; LPS 1000 ng/mL, 24-hour): 1145.77 pg/mL and 2192.5 pg/mL and 799.96 pg/mL
IL-6 Mean Concentration in supernatant (human PBMC [2]; LPS 1000 ng/mL, 24-hour): 1519.68 pg/mL and 2426.8 pg/mL and 1363.37 pg/mL
TNF-α Mean Concentration in supernatant (human PBMC [2]; LPS 1000 ng/mL, 24-hour): 2286.74 pg/mL and 3069.72 pg/mL and 1675.83 pg/mL
Production of TNF-α, IL-1β, and IL-6 (human PBMC [2]; LPS ≥1 ng/mL, 8 and 24 hours, all donors): robust production
